Experimental data taken from publication PMC4595804, “A strategy to discover decoy chemokine ligands with an anti-inflammatory activity” (Scientific Reports, 2015).

How the values were obtained:
Format in all cases: cell-based
[1] = target: T1, CCL17 (Homo sapiens, UniProt Q92583); assay: Scratch wound assay, CCL17-mediated HaCat cell migration; details: HaCat cells, 72 h, read-out: inhibition of CCL17-mediated wound closure
T1 construct: codes for the mature CCL17 or CCL22 with an N-terminal thioredoxin-hexahistidin (TRX- (His)6) tag; thioredoxin (TRX) (N, cleaved yes); (His)6 (N, cleaved yes); made in house; host or cells: E. coli BL21 (DE3)
T1 sequence (Q92583 24-94): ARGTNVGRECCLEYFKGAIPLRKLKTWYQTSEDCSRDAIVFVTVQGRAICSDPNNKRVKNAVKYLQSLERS
Procedure: soluble formazan dye which can be detected by absorbance at 420-480nm. HUT78 T cells (or HaCat cells) were seeded on 24-well plates (200,000 cells per well) and were incubated […]
concentration ≤1% on cells). The background control was reserved as one well containing the culture medium only. The plates were incubated for 72h at 37°C. Three days later, the medium containing the neutraligands was removed, and WST-1 reagent (1:10 final dilution) (Ozyme) was added to each well for a 2h incubation at 37°C as the manufacturer’s recommendation. The plates were shaken and absorbance was measured at 450nm (reference wavelength 690nm) against the background control, using a multiwell plate reader (EnVision, Perkin Elmer). Assays were performed as three independent replicates.
In vitro cell migration assay (scratch wound test) […]
the wound closure was determined as the difference between wound width at times 0 and 72h. […]
doses). After 24h, cytotoxicity was evaluated in the wells using the Alamar Blue method. […]
before AA treatment. The activity of COX2 was determined by measuring PGE2 (Cayman) in the supernatants by EIA. […]

[2] = target: T2, COX2 (Homo sapiens, UniProt P35354); assay: COX2 mediated PGE2 release in LPS-treated primary monocytes; details: 100 µM, monocytes + LPS + arachidonic acid
T2 construct: endogenous in cells; host or cells: primary human monocytes treated with LPS
T2 sequence (P35354 18-604): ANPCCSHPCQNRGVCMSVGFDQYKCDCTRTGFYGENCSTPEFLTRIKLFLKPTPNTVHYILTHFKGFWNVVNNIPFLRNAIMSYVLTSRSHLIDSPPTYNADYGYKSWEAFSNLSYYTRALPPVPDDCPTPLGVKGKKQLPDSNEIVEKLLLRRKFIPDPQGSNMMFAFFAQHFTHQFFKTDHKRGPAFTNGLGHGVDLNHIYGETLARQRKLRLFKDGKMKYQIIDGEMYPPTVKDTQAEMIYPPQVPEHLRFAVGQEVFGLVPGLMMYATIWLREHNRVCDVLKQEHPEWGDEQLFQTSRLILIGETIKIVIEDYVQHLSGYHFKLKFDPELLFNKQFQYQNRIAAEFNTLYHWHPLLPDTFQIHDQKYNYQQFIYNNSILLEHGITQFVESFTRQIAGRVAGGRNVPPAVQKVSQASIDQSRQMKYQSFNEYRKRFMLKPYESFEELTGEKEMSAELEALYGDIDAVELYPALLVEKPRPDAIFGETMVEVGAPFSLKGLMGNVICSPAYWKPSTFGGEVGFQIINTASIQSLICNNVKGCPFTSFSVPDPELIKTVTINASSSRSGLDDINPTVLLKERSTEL
Procedure: the wound closure was determined as the difference between wound width at times 0 and 72h. This experiment was repeated three times.
Human primary monocytes were isolated from buffy coats of healthy human blood donors and seeded in 24-well plates (500,000 cells/ml in 1ml) for COX-1/2 activity or 96-well plates for cell viability experiments.
Cells were seeded in 96 well plates (5,000 cells/well in 200µl) for cytotoxicity testing (Alamar […]
doses). After 24h, cytotoxicity was evaluated in the wells using the Alamar Blue method. NaF (250µg/ml) was used as a control in this experiment.
Cyclooxygenase (COX) activity
COX1 mediated prostaglandin E2 (PGE2) release. Monocytes were treated with arachidonic […]
were then collected for the determination of PGE2 by enzyme immunoassay (EIA) […]
COX2 mediated prostaglandin E2 (PGE2) release. Monocytes were incubated with LPS (10U/ml) for 24h to induce COX2 protein synthesis. After renewal of medium (serum free), […]
before AA treatment. The activity of COX2 was determined by measuring PGE2 (Cayman) in the supernatants by EIA. Aspirin (10µM) and diclofenac (10µM) were used as control […]
NaF (250µg/ml) was used as a control (relative light unit, r.l.u). (c) Monocytes were treated […]
GPN136 (grey bars). The activity of COX1 was determined by measuring prostaglandin E2 (PGE2). […]
of COX2 was determined by measuring PGE2. […]

[3] = target: T3, CCL22 (Homo sapiens, UniProt O00626); assay: CCL22-induced EGFP-CCR4 receptor internalization (flow cytometry); details: 100 nM CCL22, 30 min, 0.03–3 μM compound; read-out: half-maximal efficiency, reduction of CCL22-induced CCR4 internalization
T3 construct: codes for the mature CCL17 or CCL22 with an N-terminal thioredoxin-hexahistidin (TRX- (His)6) tag; thioredoxin (TRX) (N, cleaved yes); (His)6 (N, cleaved yes); made in house; host or cells: E. coli BL21 (DE3)
T3 sequence (O00626 25-93): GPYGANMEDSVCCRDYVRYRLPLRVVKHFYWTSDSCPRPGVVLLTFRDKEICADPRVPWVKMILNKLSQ
Procedure: Figure 6 (a) Selectivity of CCL17 and CCL22 neutraligands towards 10 chemokines according to the “neutraligand protocol”. […] Each column represents the mean (block) ± SD (bars) of n = 3 experiments performed in triplicate. *p < 0.05; **p < 0.01; ***p < 0.005 as compared to chemokine + DMSO. (b) Chemokine neutraligands inhibited CCR4 endocytosis induced by CCL22 or CCL17. EGFP-CCR4^+ HEK cells were incubated for 30 min with DMSO or chemokine (100 nM CCL22 or CCL17) in the presence or absence of test compounds. […] Cell surface EGFP-tagged CCR4 receptors were measured by EGFP antibody labeling and flow cytometry analysis. CCR4 internalization was expressed as a percentage of total receptor surface expression calculated using control cells incubated with DMSO (100%). Each column represents the mean (block) ± SD (bars) of n = 3 experiments performed in triplicate. *p < 0.05; **p < 0.01; ***p < 0.005 as compared to chemokine alone. (c,d) Inhibition of CCL17 and CCL22- induced CCR4^+HUT78 T cell chemotaxis by neutraligands. […] The number of migrating cells in the presence of chemokine and compounds were expressed as the corresponding percentages. Results were analyzed by fitting the experimental curves (% of migrating cells vs log compound concentration) using the Kaleidagraph software program, and the corresponding IC50 values were calculated. […]

Row | Structure (SMILES) | inhibition at 10 µM [1] [%] | effect on COX2 activity (PGE2) [2] | IC50 [3] [nM]
1 | CC(C)=CCn1cnc2c1c(=O)n(C)c(=O)n2C [GPN279, 1,3-dimethyl-7-(3-methylbut-2-enyl)-1H-purine-2,6(3H, 7H)-dione] | 81.4 | no effect | –
2 | O=C(OCC(O)CO)c1ccccc1O (stereo not drawn) [GPN136, 2,3-dihydroxypropyl 2-hydroxybenzoate] | – | – | ~100
